In ChEMBL document CHEMBL4330071 (Eur J Med Chem, 2019):

What was measured:
MV4-11 [1] = assay: Induction of apoptosis in human MV4-11 cells assessed as necrotic cells at 0.2 uM after 24 hrs by Annexin V-FITC/propidium iodide staining based flow cytometric analysis (reference value: 0%); assay type: functional
MV4-11 [2] = assay: Induction of apoptosis in human MV4-11 cells assessed as viable cells at 0.5 uM after 24 hrs by Annexin V-FITC/propidium iodide staining based flow cytometric analysis (reference value: 95.19%); assay type: functional; settings: MV4-11, 24 h, read-out: Activity
CDK6/cyclin D1 = CDK6/cyclin D1 (Homo sapiens, UniProt Q00534); assay: Inhibition of human CDK6/cyclin-D1 using RB protein as substrate preincubated for 20 mins followed by [gamma-33P]-ATP addition and measured after 120 mins by Hotspot assay; assay type: protein-complex assay
[3] = molecular target: Tyrosine-protein kinase ABL1 (Homo sapiens, UniProt P00519, Q252H); assay: Binding affinity to human phosphorylated ABL1 Q252H mutant expressed in mammalian expression system after 60 mins by Kinomescan method
[4] = molecular target: Cyclin-dependent kinase 4/cyclin D1 (Homo sapiens) (UniProt P11802+P24385); assay: Inhibition of human CDK4/cyclin-D1 assessed as residual activity at 10 uM using RB protein as substrate preincubated for 20 mins followed by [gamma-33P]-ATP addition and measured after 120 mins by Hotspot assay relative to control; assay type: protein-complex assay
[5] = molecular target: Serine/threonine-protein kinase Chk1 (Homo sapiens, UniProt O14757); assay: Inhibition of human CHK1 using KKKVSRSGLYRSPSMPENLNRPR as substrate preincubated for 20 mins followed by [gamma-33P]-ATP addition and measured after 120 mins by Hotspot assay
[6] = Half life in human liver microsomes at 1 uM after 5 to 60 mins in presence of NADPH by LC-MS/MS analysis; assay type: ADME, Microsome
[7] = Half life in rat liver microsomes at 1 uM after 5 to 60 mins in presence of NADPH by LC-MS/MS analysis; assay type: ADME, Microsome
[8] = molecular target: Mast/stem cell growth factor receptor Kit (Homo sapiens, UniProt P10721); assay: Binding affinity to wild-type human partial length autoinhibited KIT (Y545 to D952 residues) expressed in mammalian expression system after 60 mins by Kinomescan method
[9] = molecular target: Glycogen synthase kinase-3 beta (Homo sapiens) (UniProt P49841); assay: Inhibition of human GSK3B assessed as residual activity at 10 uM using YRRAAVPPSPSLSRHSSPHQ(pS)EDEEE as substrate preincubated for 20 mins followed by [gamma-33P]-ATP addition and measured after 120 mins by Hotspot assay relative to control
[10] = molecular target: T1, Platelet-derived growth factor receptor alpha (Homo sapiens, UniProt P16234); assay: Inhibition of human PDGFRalpha assessed as residual activity at 10 uM using poly[Glu:Tyr] (4:1) as substrate preincubated for 20 mins followed by [gamma-33P]-ATP addition and measured after 120 mins by Hotspot assay relative to control
MV4-11 [11] = assay: Induction of apoptosis in human MV4-11 cells assessed as viable cells at 0.02 uM after 24 hrs by Annexin V-FITC/propidium iodide staining based flow cytometric analysis (reference value: 95.19%); assay type: functional; settings: MV4-11, 24 h, read-out: Activity
[12] = molecular target: T1, Platelet-derived growth factor receptor alpha; assay: Inhibition of human PDGFRalpha using poly[Glu:Tyr] (4:1) as substrate preincubated for 20 mins followed by [gamma-33P]-ATP addition and measured after 120 mins by Hotspot assay
[13] = molecular target: Tyrosine-protein kinase ABL1 (Homo sapiens, UniProt P00519, H396P); assay: Binding affinity to human phosphorylated ABL1 H396P mutant (S229 to K512 residues) expressed in mammalian expression system after 60 mins by Kinomescan method
MV4-11 [14] = assay: Induction of apoptosis in human MV4-11 cells assessed as early apoptotic cells at 0.1 uM after 24 hrs by Annexin V-FITC/propidium iodide staining based flow cytometric analysis (reference value: 3.39%); assay type: functional
MV4-11 [15] = assay: Induction of apoptosis in human MV4-11 cells assessed as necrotic cells at 0.1 uM after 24 hrs by Annexin V-FITC/propidium iodide staining based flow cytometric analysis (reference value: 0%); assay type: functional
MV4-11 [16] = assay: Induction of apoptosis in human MV4-11 cells assessed as necrotic cells at 0.02 uM after 24 hrs by Annexin V-FITC/propidium iodide staining based flow cytometric analysis (reference value: 0%); assay type: functional
[17] = molecular target: Tyrosine-protein kinase BTK (Homo sapiens, UniProt Q06187); assay: Inhibition of human BTK assessed as residual activity at 10 uM using KVEKIGEGTYGVVYK as substrate preincubated for 20 mins followed by [gamma-33P]-ATP addition and measured after 120 mins by Hotspot assay relative to control
MOLM-13 = assay: Growth inhibition of human MOLM13 cells harboring FLT3 ITD mutant at 10 uM after 72 hrs by CellTiter-Glo assay relative to control; assay type: functional; settings: MOLM-13, 72 h, read-out: GI
MV4-11 [18] = assay: Cell cycle arrest in human MV4-11 cells assessed as accumulation at G2/M phase after 24 hrs by ribonuclease/propidium iodide staining based flow cytometric analysis; assay type: functional
MV4-11 [19] = assay: Induction of apoptosis in human MV4-11 cells assessed as early apoptotic cells at 0.02 uM after 24 hrs by Annexin V-FITC/propidium iodide staining based flow cytometric analysis (reference value: 3.39%); assay type: functional
[20] = molecular target: ALK tyrosine kinase receptor (Homo sapiens, UniProt Q9UM73); assay: Inhibition of human ALK using poly[Glu:Tyr] (4:1) as substrate preincubated for 20 mins followed by [gamma-33P]-ATP addition and measured after 120 mins by Hotspot assay
[21] = molecular target: Cyclin-dependent kinase 7/ cyclin H (Homo sapiens) (UniProt P51946+P50613); assay: Inhibition of human CDK7/cyclin-H assessed as residual activity at 10 uM using MBP as substrate preincubated for 20 mins followed by [gamma-33P]-ATP addition and measured after 120 mins by Hotspot assay relative to control; assay type: protein-complex assay
MV4-11 [22] = assay: Induction of apoptosis in human MV4-11 cells assessed as early apoptotic cells at 0.5 uM after 24 hrs by Annexin V-FITC/propidium iodide staining based flow cytometric analysis (reference value: 3.39%); assay type: functional
[23] = molecular target: Serine/threonine-protein kinase Chk1 (Homo sapiens) (UniProt O14757); assay: Inhibition of human CHK1 assessed as residual activity at 10 uM using KKKVSRSGLYRSPSMPENLNRPR as substrate preincubated for 20 mins followed by [gamma-33P]-ATP addition and measured after 120 mins by Hotspot assay relative to control
MV4-11 [24] = assay: Induction of apoptosis in human MV4-11 cells assessed as necrotic cells at 0.05 uM after 24 hrs by Annexin V-FITC/propidium iodide staining based flow cytometric analysis (reference value: 0%); assay type: functional
[25] = molecular target: CDK1/Cyclin A (Homo sapiens) (UniProt P06493+P20248); assay: Inhibition of human CDK1/Cyclin-A assessed as residual activity at 10 uM using Histone H1 as substrate preincubated for 20 mins followed by [gamma-33P]-ATP addition and measured after 120 mins by Hotspot assay relative to control; assay type: protein-complex assay

Sequence of Serine/threonine-protein kinase Chk1 (O14757 whole entry): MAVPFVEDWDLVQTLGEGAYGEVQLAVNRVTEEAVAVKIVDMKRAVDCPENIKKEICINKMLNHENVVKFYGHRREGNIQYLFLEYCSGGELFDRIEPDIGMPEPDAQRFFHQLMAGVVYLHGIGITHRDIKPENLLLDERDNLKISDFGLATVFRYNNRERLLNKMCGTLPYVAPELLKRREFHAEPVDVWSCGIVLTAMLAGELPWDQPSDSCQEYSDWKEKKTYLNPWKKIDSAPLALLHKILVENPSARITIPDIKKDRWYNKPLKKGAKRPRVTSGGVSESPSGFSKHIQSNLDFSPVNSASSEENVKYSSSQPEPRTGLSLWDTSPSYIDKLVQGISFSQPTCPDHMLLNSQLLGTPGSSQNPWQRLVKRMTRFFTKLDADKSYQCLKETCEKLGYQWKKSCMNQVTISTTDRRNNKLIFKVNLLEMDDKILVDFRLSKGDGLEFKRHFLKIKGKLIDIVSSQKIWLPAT
T1 sequence (P16234 whole entry): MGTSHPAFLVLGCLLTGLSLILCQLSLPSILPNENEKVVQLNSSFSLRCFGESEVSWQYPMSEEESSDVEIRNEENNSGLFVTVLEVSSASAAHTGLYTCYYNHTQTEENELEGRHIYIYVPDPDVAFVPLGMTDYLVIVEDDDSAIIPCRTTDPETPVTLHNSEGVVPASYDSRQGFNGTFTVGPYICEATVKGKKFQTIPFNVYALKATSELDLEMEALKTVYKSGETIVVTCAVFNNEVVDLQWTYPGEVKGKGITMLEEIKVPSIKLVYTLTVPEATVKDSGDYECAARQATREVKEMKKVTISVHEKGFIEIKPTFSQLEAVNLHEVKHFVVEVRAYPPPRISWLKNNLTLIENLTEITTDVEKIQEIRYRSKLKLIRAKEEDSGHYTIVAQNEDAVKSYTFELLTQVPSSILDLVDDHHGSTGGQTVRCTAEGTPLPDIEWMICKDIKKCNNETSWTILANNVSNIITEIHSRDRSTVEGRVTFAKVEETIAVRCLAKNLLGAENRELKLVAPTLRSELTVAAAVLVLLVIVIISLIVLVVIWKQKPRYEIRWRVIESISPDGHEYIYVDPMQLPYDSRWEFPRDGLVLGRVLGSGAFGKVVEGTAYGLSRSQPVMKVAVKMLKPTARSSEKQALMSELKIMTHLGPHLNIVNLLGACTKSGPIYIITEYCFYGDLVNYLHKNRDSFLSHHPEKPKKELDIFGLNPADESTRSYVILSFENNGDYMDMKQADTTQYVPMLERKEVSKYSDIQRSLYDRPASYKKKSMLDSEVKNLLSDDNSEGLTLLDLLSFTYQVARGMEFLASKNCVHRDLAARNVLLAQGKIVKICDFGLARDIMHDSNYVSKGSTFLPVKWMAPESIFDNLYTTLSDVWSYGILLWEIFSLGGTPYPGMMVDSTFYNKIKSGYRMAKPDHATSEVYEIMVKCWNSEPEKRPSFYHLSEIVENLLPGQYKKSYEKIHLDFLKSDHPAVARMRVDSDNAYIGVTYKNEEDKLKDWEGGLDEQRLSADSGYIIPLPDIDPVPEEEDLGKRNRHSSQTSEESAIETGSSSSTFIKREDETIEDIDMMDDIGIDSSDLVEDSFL
Sequence of ALK tyrosine kinase receptor (Q9UM73 whole entry): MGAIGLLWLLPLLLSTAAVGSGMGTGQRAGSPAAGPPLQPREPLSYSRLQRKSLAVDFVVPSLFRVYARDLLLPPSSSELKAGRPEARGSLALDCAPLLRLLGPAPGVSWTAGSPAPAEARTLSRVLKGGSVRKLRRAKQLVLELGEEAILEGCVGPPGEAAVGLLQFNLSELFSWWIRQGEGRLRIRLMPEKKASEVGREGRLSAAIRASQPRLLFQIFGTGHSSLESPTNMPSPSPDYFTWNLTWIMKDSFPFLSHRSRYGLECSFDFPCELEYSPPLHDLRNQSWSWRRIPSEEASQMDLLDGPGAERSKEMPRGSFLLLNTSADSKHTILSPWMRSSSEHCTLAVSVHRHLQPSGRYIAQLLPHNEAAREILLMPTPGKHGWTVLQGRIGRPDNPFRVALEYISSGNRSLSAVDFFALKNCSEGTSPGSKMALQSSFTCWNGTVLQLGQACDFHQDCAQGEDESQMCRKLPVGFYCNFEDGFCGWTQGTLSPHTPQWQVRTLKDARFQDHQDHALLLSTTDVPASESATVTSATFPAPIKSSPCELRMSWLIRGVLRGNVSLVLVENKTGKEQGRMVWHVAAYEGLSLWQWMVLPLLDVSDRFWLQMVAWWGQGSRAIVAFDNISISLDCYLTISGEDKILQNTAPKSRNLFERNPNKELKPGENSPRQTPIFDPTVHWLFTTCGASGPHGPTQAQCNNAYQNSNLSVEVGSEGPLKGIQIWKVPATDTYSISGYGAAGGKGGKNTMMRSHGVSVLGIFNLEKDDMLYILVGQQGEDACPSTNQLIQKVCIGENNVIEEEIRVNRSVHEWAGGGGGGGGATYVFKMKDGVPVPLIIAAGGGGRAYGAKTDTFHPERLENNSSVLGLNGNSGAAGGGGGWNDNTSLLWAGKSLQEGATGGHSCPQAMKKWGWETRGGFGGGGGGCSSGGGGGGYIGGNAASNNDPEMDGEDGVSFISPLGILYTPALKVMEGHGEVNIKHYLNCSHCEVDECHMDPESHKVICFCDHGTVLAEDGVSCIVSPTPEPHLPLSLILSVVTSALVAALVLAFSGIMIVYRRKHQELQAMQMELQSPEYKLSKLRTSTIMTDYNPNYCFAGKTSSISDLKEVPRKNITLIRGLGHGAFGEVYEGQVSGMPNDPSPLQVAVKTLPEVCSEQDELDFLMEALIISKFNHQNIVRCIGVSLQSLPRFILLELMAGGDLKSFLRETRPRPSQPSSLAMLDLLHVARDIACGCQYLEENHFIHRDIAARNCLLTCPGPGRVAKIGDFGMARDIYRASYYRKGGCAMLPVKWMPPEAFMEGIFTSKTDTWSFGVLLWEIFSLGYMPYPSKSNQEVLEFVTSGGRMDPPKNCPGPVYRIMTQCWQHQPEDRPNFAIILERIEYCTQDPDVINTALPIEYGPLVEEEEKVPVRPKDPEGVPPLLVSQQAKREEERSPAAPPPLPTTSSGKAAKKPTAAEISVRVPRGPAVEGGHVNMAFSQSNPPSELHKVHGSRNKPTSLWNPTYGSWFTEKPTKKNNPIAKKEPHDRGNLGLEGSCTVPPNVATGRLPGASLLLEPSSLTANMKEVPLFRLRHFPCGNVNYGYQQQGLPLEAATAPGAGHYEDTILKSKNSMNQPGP
Sequence of Mast/stem cell growth factor receptor Kit (P10721 whole entry, the tested form may be a part): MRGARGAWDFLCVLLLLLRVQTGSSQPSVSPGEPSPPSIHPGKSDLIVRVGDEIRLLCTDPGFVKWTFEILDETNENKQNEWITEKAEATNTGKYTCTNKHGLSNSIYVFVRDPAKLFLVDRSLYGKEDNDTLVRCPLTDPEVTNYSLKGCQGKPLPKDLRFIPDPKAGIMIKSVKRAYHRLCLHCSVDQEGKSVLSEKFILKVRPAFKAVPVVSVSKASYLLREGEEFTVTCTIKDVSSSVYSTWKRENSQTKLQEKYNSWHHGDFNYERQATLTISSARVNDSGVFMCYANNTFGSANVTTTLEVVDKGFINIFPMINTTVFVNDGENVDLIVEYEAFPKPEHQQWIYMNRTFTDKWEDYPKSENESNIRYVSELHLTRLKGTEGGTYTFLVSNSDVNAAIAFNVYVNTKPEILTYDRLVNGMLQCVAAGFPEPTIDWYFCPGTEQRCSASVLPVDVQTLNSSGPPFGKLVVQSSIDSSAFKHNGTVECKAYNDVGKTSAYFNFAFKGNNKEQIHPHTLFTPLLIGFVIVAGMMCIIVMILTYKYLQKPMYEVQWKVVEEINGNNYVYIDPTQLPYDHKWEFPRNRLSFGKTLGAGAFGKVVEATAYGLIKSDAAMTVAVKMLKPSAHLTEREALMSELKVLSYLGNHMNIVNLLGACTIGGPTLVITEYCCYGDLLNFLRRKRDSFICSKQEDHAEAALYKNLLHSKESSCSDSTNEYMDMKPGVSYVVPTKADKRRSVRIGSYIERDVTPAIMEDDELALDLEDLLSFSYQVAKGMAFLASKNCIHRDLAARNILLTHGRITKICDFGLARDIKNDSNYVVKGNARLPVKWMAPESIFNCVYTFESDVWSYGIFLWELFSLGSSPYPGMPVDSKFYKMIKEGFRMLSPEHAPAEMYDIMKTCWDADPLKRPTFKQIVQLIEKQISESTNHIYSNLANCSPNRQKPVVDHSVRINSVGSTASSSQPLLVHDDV
Sequence of Tyrosine-protein kinase BTK (Q06187 whole entry): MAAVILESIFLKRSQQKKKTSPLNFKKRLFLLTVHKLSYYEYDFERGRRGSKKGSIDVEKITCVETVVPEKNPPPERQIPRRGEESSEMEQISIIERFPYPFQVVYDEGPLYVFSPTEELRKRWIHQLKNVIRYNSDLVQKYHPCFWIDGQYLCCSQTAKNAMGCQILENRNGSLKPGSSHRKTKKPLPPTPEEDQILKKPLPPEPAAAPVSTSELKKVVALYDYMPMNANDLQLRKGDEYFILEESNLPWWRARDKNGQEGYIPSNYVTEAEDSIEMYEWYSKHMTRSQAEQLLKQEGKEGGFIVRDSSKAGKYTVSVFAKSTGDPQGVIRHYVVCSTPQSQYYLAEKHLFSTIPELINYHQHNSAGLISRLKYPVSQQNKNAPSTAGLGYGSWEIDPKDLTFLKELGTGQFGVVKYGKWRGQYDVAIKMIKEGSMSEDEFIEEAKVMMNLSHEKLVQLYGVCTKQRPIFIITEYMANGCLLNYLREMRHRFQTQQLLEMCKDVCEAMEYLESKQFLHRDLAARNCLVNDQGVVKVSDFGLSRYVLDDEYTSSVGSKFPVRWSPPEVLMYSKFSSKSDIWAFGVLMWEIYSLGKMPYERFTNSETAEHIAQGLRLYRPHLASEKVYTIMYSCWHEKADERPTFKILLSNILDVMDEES
Sequence of Serine/threonine-protein kinase Chk1 (Homo sapiens) (O14757 whole entry): as the sequence (O14757 whole entry) above

**Q.** For `CN1CCC(Nc2ccc(C(=O)Nc3cc(-c4cc(C#N)cs4)n[nH]3)cc2)CC1`, which Activity (MV4-11 [1]) is on record?
**A.** The Activity was 4.1%.

**Q.** What about the viability at 0.5 µM (MV4-11 [2]) of the same molecule?
**A.** Its viability at 0.5 µM is 39.8%.

**Q.** What about the IC50 (CDK6/cyclin D1) of the same molecule?
**A.** Its IC50 is 3.06 µM.

**Q.** And the Kd [3]?
**A.** The Kd was 0.3 µM.

**Q.** And the Activity [4]?
**A.** Its Activity is 49.2%.

**Q.** What about the IC50 ([5]; read-out: IC50) of the same molecule?
**A.** The IC50 was 1.53 µM.

**Q.** And the IC50 ([5]; read-out: pIC50 (converted))?
**A.** Its IC50 is 1.58 µM.

**Q.** And the half-life at 1 µM [6]?
**A.** The half-life at 1 µM was 61.9 min.

**Q.** What about the half-life at 1 µM [7] of the same molecule?
**A.** The half-life at 1 µM was 8.1 min.

**Q.** What about the Kd [8] of the same molecule?
**A.** The Kd was 0.072 µM.

**Q.** And the Activity [9]?
**A.** Its Activity is 72.8%.

**Q.** And the Activity [10]?
**A.** The Activity was 30.2%.

**Q.** What about the viability at 0.02 µM (MV4-11 [11]) of the same molecule?
**A.** Its viability at 0.02 µM is 68.6%.

**Q.** What about the IC50 [12] of the same molecule?
**A.** The IC50 was 3.64 µM.

**Q.** What about the Kd [13] of the same molecule?
**A.** Its Kd is 0.39 µM.

**Q.** And the Activity (MV4-11 [14])?
**A.** The Activity was 24.27%.

**Q.** And the Activity (MV4-11 [15])?
**A.** Its Activity is 3%.

**Q.** And the Activity (MV4-11 [16])?
**A.** The Activity was 3.01%.

**Q.** And the Activity [17]?
**A.** Its Activity is 12.9%.

**Q.** What about the inhibition of growth at 10 µM (MOLM-13) of the same molecule?
**A.** The inhibition of growth at 10 µM was 92.1%.

**Q.** And the Activity (MV4-11 [18])?
**A.** The Activity was “Dose-dependent effect”.

**Q.** What about the Activity (MV4-11 [19]) of the same molecule?
**A.** Its Activity is 17.09%.

**Q.** What about the IC50 [20] of the same molecule?
**A.** Its IC50 is 5.14 µM.

**Q.** What about the Activity [21] of the same molecule?
**A.** The Activity was 27.1%.

**Q.** What about the Activity (MV4-11 [22]) of the same molecule?
**A.** Its Activity is 28.65%.

**Q.** What about the Activity [23] of the same molecule?
**A.** The Activity was 11.8%.

**Q.** And the Activity (MV4-11 [24])?
**A.** Its Activity is 4.51%.

**Q.** What about the Activity [25] of the same molecule?
**A.** Its Activity is 74.5%.
